# Experimental data as given in PMC12730667, “A Scorpion Peptide Exerts Selective Anti-Leukemia Effects Through Disrupting Cell Membranes and Triggering Bax/Bcl-2-Related Apoptosis Pathway” (Biomolecules, 2025).
# Where no end group is shown, it is not given here.
# Key:
# [1] = system: 24 distinct cancer cell lines; format: cell-based; conditions: CCK-8, 5, 10 and 20 μM
# Procedure: (§1) All cell lines, including CT26.WT, LLC, MV-4-11, HCT-116, ID8, Jurkat, L1210, OVCAR-8, YAC-1, MDA-MB-231, MEL, Mia PaCa-2, B16-F10, HepG2, A549 Hela, 4T1, Panco2, K562, RAJI, A375, HL-60, H1975, HaCat, HUVEC, and HDF, were obtained from the National Collection of Authenticated Cell Cultures (Shanghai, China) or saved in the lab and cultured in RPMI-1640 or DMEM or IMEM medium supplemented with 10% (v/v) fetal bovine serum (FBS), 100 units/mL penicillin, 100 µg/mL streptomycin, and 0.05% (v/v) L-glutamine serum in a humidified atmosphere of 5% CO2 at 37 °C.
# (§2) To determine the effects of Lpep3 on cell cytotoxicity, the Cell Counting Kit-8 (CCK8) assay was performed according to the manufacturer’s protocol. Cells were seeded at 8 × 10^3 cells per well and treated with Lpep3 at different concentrations (100, 50, 25, 12.5, 6.25, 3.125, 1.56, 0.78, 0.39 μM) for 24 h. […] The absorbance at 450 nm was measured using a microplate reader (BioTek, Winooski, VT, USA). […] IC50 values were calculated using non-linear regression analysis of the dose–response curves in GraphPad Prism (8.0.2). The percentage of cellular viability was calculated using the following equation: Cell Viability %=ODSample−ODBlank/ODControl−ODBlank×100%
# To comprehensively characterize the anticancer activity of peptides Lpep1–Lpep7, their cytotoxic effects across 24 distinct cancer cell lines were assessed using CCK-8 assays. […]
# 4T1 cells = format: cell-based; conditions: 24 h
# Procedure: as §1
# (§3) To determine the effects of Lpep3 on cell cytotoxicity, the Cell Counting Kit-8 (CCK8) assay was performed according to the manufacturer’s protocol. Cells were seeded at 8 × 10^3 cells per well and treated with Lpep3 at different concentrations (100, 50, 25, 12.5, 6.25, 3.125, 1.56, 0.78, 0.39 μM) for 24 h. Subsequently, 10 μL of CCK8 reagent (Abbkine, Wuhan, China) was added to each well and incubated for 1–4 h at 37 °C. The absorbance at 450 nm was measured using a microplate reader (BioTek, Winooski, VT, USA). The half-maximal inhibitory concentration (IC50) was defined as the peptide concentration required to reduce cell viability by 50% relative to the untreated control. IC50 values were calculated using non-linear regression analysis of the dose–response curves in GraphPad Prism (8.0.2). The percentage of cellular viability was calculated using the following equation: Cell Viability %=ODSample−ODBlank/ODControl−ODBlank×100%
# B16-F10 cells = format: cell-based; conditions: 24 h
# Procedure: as §1, §3
# CT26.WT cells = format: cell-based; conditions: 24 h
# Procedure: as §1, §3
# H1975 cells = format: cell-based; conditions: 24 h
# Procedure: as §1, §3
# HDF cells = format: cell-based; conditions: 24 h
# Procedure: as §1, §3
# HUVEC cells = format: cell-based; conditions: 24 h
# Procedure: as §1, §3
# HaCaT cells = format: cell-based; conditions: 24 h
# Procedure: as §1, §3
# ID8 cells = format: cell-based; conditions: 24 h
# Procedure: as §1, §3
# LLC cells = format: cell-based; conditions: 24 h
# Procedure: as §1, §3
# Panc02 cells = format: cell-based; conditions: 24 h
# Procedure: as §1, §3
# A375 cells = format: cell-based, human; conditions: 24 h
# Procedure: as §1, §3
# A549 cells = format: cell-based, human; conditions: 24 h
# Procedure: as §1, §3
# HCT116 cells = format: cell-based, human; conditions: 24 h
# Procedure: as §1, §3
# HL-60 cells = format: cell-based, human; conditions: 24 h
# Procedure: as §1, §3
# HeLa cells = format: cell-based, human; conditions: 24 h
# Procedure: as §1, §3
# Hep G2 cells = format: cell-based, human; conditions: 24 h
# Procedure: as §1, §3
# Jurkat cells = format: cell-based, human; conditions: 24 h
# Procedure: as §1, §3
# K562 cells = format: cell-based, human
# Procedure: as §1, §3
# MDA-MB-231 cells = format: cell-based, human; conditions: 24 h
# Procedure: as §1, §3
# MV-4-11 cells = format: cell-based, human
# Procedure: as §1, §3
# Mia PaCa-2 cells = format: cell-based, human; conditions: 24 h
# Procedure: as §1, §3
# OVCAR-8 cells = format: cell-based, human; conditions: 24 h
# Procedure: as §1, §3
# L1210 cells = conditions: 24 h
# Procedure: as §1, §3
# MEL cells = conditions: 24 h
# Procedure: as §1, §3
# YAC-1 cells = conditions: 24 h
# Procedure: as §1, §3
# Primary PBMC = format: cell-based; conditions: 24 h
# Procedure: Briefly, fresh anticoagulated whole blood was collected and diluted with 1× PBS buffer at a ratio of 1:1, followed by gentle mixing. Then, an appropriate volume of mononuclear cell separation medium was added to a sterile centrifuge tube, and the diluted blood sample was carefully layered onto the surface of the separation medium (separation medium–diluted whole blood = 1:2) while maintaining a clear interface between the two layers. Then, it was centrifuged at 450× g for 20–30 min at room temperature. After centrifugation, the plasma layer was aspirated and discarded, then the PBMC layer was carefully collected (i.e., the buffy coat) and transferred to a 15 mL centrifuge tube. […] The isolated PBMCs were then ready for subsequent experiments.
# as §2, with “protocol.” for “protocol. Cells were seeded at 8 × 10^3 cells per well and treated with Lpep3 at different concentrations (100, 50, 25, 12.5, 6.25, 3.125, 1.56, 0.78, 0.39 μM) for 24 h.”
# solid tumor cell lines = experiment: CCK-8 IC50, solid cancer cell lines as a group; format: cell-based; conditions: range over hepatocellular, pancreatic, breast, cervical, lung, colorectal, ovarian and melanoma cell lines, CCK-8, 24 h; read-out: IC50 values in solid cancers
# Procedure: as §3
# Based on the above results, subsequent studies will focus on determining the IC50 of Lpep3 to accurately quantify the intensity of its anticancer activity. […] The ovarian cell was the most sensitive in solid tumor cell lines.
# non-cancer cells = format: cell-based; conditions: 24 h
# Procedure: as §3
# The lowest values approached 0.6 μM in MV-4-11. […] Based on this discrepancy, concentrations of 0.5 μM and 1 μM were selected for subsequent experiments.
# red blood cells = experiment: Hemolytic activity assay; format: cell-based; conditions: red blood cells in PBS, 37 °C, 1 h, absorbance 450 nm, 0.1% Triton X-100 as positive control, Figure S2B
# Procedure: A total of 500 μL fresh whole blood was collected and diluted with 5 mL PBS and then centrifuged at 1000 rpm for 5 min to remove the plasma. The pellet was washed again by adding PBS to a final volume of approximately 10 mL, followed by centrifuging at 1000 rpm for 5 min. This washing step was repeated until the supernatant became clear. The resulting red blood cell pellet was then resuspended in 10 mL PBS. For the hemolysis assay, 200 μL suspension was mixed with 200 μL Lpep3 with different concentrations (100, 50, 25, 12.5, 6.25, 3.125, 1.57, 0.78, 0.39 μM). The positive control consisted of 200 μL suspension mixed with 200 μL 0.1% Triton X-100, while the negative control contained 200 μL RBC suspension and 200 μL PBS. All mixtures were incubated at 37 °C for 1 h, followed by centrifugation at 12,000 rpm for 5 min. The supernatant was collected and measured at 450 nm. The hemolysis rate was calculated using the following equation: Hemolysis rate%=ODSample−ODnegative/ODPositive−ODnagative×100%
# [2] = In vivo biosafety in tumor-bearing nude mice (body weight, blood, liver/kidney function, H&E); design: species or system mouse; conditions: 10 mg/kg i.p. every other day, 6 injections
# From the text: Healthy male BALB/c nu/nu nude mice (aged 4–5 weeks) were purchased from Slac & Jingda Laboratory Animal Co., Ltd. (Changsha, China). All animal experiments were strictly approved by the Institutional Animal Care and Use Committee (IACUC) of Hunan Normal University, and the Guidelines for the Care and Use of Laboratory Animals issued by the National Institutes of Health (NIH, Bethesda, MD, USA) were strictly adhered to throughout the experiment. MV-4-11 cells (5 × 10^6 cells resuspended in a 1:1 mixture of Matrigel and PBS) were subcutaneously (s.c.) injected into the right axillary fossa of each mouse. When the tumor volume reached 100–150 mm^3, all mice were randomly divided into two groups (n = 4). Mice in the experimental group were intraperitoneally injected with 50 μL of Lpep3 (10 mg/kg), while those in the control group received an intraperitoneal injection of an equal volume of sterile PBS. The day of the first injection was defined as Day 0. Injections were administered every other day, with a total of 6 administrations. Additionally, the tumor volume and body weight of mice in each group were monitored at regular intervals. After the experiment, major organs were dissected, fixed in 4% paraformaldehyde (PFA), and subjected to histological examination. Major organs were further stained with hematoxylin and eosin (H&E) for pathological analysis.
# After euthanasia, whole blood was collected and allowed to stand at 4 °C for 1 h and then centrifuged at 3000× g for 10 min to obtain serum. Serum biochemical and liver/kidney function parameters, including RBC, NEU, HGB, ALT, AST, BUN, and creatinine, were analyzed using an automated chemistry analyzer (TBA-40FR, Tochigi, Japan) according to the manufacturer’s instructions.
# Raji cells = format: cell-based, human; conditions: Raji, 5, 10 and 20 μM, CCK-8
# Procedure: as §1
# as §3, with “Cells were seeded at 8 × 10^3 cells per well and treated with Lpep3 at different concentrations (100, 50, 25, 12.5, 6.25, 3.125, 1.56, 0.78, 0.39 μM) for 24 h.” left out
# [3] = Solubility of the synthesized peptide in PBS and DMSO; format: physicochemical; conditions: peptide excluded from experimental verification
# From the text: Based on the anticancer prediction model CNBT-ACPred established by our team previously, there are 276 toxic animal polypeptides whose average prediction score is greater than 0.73. Then, based on the top prediction scores and species diversity, seven candidate peptides were chosen for subsequent experimental validation (Table 2).
sequence,measurement,setting,value
FFGSLLSLGSKLLPSVFKLFQRKKE [Lpep3],cytotoxic effects across 24 distinct cancer cell lines,[1],"potent, broad-spectrum cytotoxic peptide"
same,IC50,4T1 cells,3050 nM
same,IC50,B16-F10 cells,11800 nM
same,IC50,CT26.WT cells,2000 nM
same,IC50,H1975 cells,3040 nM
same,IC50,HDF cells,4520 nM
same,IC50,HUVEC cells,6420 nM
same,IC50,HaCaT cells,5800 nM
same,IC50,ID8 cells,1990 nM
same,IC50,LLC cells,2320 nM
same,IC50,Panc02 cells,2870 nM
same,IC50,A375 cells,2230 nM
same,cell viability,A375 cells; 5 μM,~0%
same,IC50,A549 cells,2720 nM
same,IC50,HCT116 cells,3200 nM
same,IC50,HL-60 cells,1490 nM
same,IC50,HeLa cells,2720 nM
same,cell viability,HeLa cells; 5 μM,~0%
same,IC50,Hep G2 cells,6990 nM
same,IC50,Jurkat cells,554 nM
same,cell viability,Jurkat cells; 5 μM,~0%
same,IC50,K562 cells; 24 h,656 nM
same,cell viability,"K562 cells; 24 h, 5 μM",~0%
same,IC50,MDA-MB-231 cells,2320 nM
same,cell viability,MDA-MB-231 cells; 5 μM,~0%
same,IC50,MV-4-11 cells; 24 h,600 nM
same,cell viability,"MV-4-11 cells; 24 h, 5 μM",~0%
same,IC50,Mia PaCa-2 cells,5400 nM
same,IC50,OVCAR-8 cells,1300 nM
same,cell viability,OVCAR-8 cells; 5 μM,~0%
same,IC50,L1210 cells,2050 nM
same,IC50,MEL cells,563 nM
same,IC50,YAC-1 cells,728 nM
same,IC50,Primary PBMC,3810 nM
same,IC50,solid tumor cell lines,1300 to 11000 nM
same,IC50,non-cancer cells,~5000 nM
same,concentration at which a 50% hemolysis rate was observed,red blood cells,12.5 µM
same,"liver and kidney function indices (AST, ALT, UA, CRE)","[2]; n = 4, serum",remained within the normal range
same,"blood routine indices (RBC, HGB, Neu)","[2]; n = 4, vs PBS",no obvious difference
same,body weight,"[2]; n = 4, vs PBS",no obvious difference
same,"H&E staining of liver, spleen and kidney",[2]; vs control group,no obvious damage
"FVQWFSKFLGRIL [Lpep7, 13-residue candidate peptide, species Rana temporaria]",cytotoxic activity,"K562 cells; K562, 5, 10 and 20 μM, CCK-8",moderate activity
same,cytotoxic activity,"MV-4-11 cells; MV-4-11, 5, 10 and 20 μM, CCK-8",moderate activity
same,cytotoxic activity,Raji cells,moderate activity
"GLFDIAKKVIGVIGSL [Lpep4, 16-residue candidate peptide, species Ranoidea raniformis]",solubility in PBS and DMSO,[3],poor solubility
